# Experimental data reported in patent US20180125993A1 (BEIJING COTIMES BIOTECH COMPANY LIMITED, priority 2014, published 2018).
# Marks after values point to notes of the source that are not given here.
# Key:
# [1] = tested on: WI-38, HFL-1, HUV-EC-C, human hepatic differentiated cells; experiment: Cytotoxicity of HuCTB006 on human normal tissue cell lines; format: cell-based; settings: 24 hours after the treatments
# Text: Several human normal tissue cell lines, including human lung epithelial fibroblasts WI-38, human embryonic lung fibroblasts HFL-1, human umbilical vein epithelial cells HUV-EC-C, and human hepatic differentiated cells, which were derived from liver genitor cells (obtained from Peking University Third Hospital). […] The culture medium for WI-38 was MEM, and the culture medium for HFL-1 and HUV-EC-C was F-12K.
# [2] = tested on: Daudi; experiment: In vitro cytotoxic sensitivity of CTB006; format: cell-based, human; settings: B cell lymphoma
# [3] = tested on: Raji; experiment: In vitro cytotoxic sensitivity of CTB006; format: cell-based, human; settings: B cell lymphoma
# [4] = tested on: A549; experiment: In vitro cytotoxic sensitivity of CTB006; format: cell-based, human; settings: A549, Lung cancer
# [5] = tested on: MDA-MB-361; experiment: In vitro cytotoxic sensitivity of CTB006; format: cell-based, human; settings: MDA-MB-361, Breast cancer
# [6] = tested on: BGC823; experiment: In vitro cytotoxic sensitivity of CTB006; format: cell-based, human; settings: BGC823, Stomach cancer
# [7] = tested on: BGC803; experiment: In vitro cytotoxic sensitivity of CTB006; format: cell-based, human; settings: BGC803, Stomach cancer
# [8] = tested on: HT1080; experiment: In vitro cytotoxic sensitivity of CTB006; format: cell-based, human; settings: HT1080, Fibrosarcoma
# [9] = tested on: colon cancer, CS182, 5#; experiment: Patients primary tumor tissue subcutaneous model (Day 27 after treatment); format: in vivo, nude mice; settings: HuCTB006 10 mg/kg i.v. QW × 3w
# Text: (§1) Fresh primary tumor tissues from patients were implanted in NOD/SCID mice's flank, which developed into a primary tumor, which was then transferred to the nude mice's flank to allow the tumor reaching an exponential growth phase, and the tumor was named 1# tumor, and so on. When the tumor volume and number reached passage requirements, they were implanted into the right flank of nude mice. When the tumors' average volumes reached 100-200 mm^3, the mice were grouped.
# (§2) The bodyweight and major/minor axis of mice were measured twice a week, and Tumor Growth Inhibition (TGI) and tumor volume were calculated same as in 5.1.5. In addition, to evaluate the synergetic effect of drug combination in tumor growth, Jin Zhengjun Q value judgment method was used with the follow formula: Q=Ea+b/(Ea+Eb−Ea×Eb). Ea+b is the inhibition ratio of drug combination, Ea and Eb are the inhibition ratio of each of drug treatment when it is administered alone. […] The animals were monitored, and when the experiments were concluded, mice were sacrificed and tumors were extracted and weighted. All the animal experiments confer to the regulations of animal's welfare and the management of experimental animal usage.
# (§3) Tumor volumes were represented with average±standard error. Data analysis was done using Spss16.0, One-Way ANOVA, LSD (homogeneity of variance) or Dunnett T3 (non-homogeneity of variance). […] P<0.05 represents significant difference.
# [10] = tested on: colon cancer, CS263, 1#; experiment: Patients primary tumor tissue subcutaneous model (Day 35 after treatment); format: in vivo, nude mice; settings: HuCTB006 10 mg/kg i.v. QW × 4w
# Text: as §1, §2, §3
# [11] = tested on: lung cancer, CS225, 1#; experiment: Patients primary tumor tissue subcutaneous model (Day 37 after treatment); format: in vivo, nude mice; settings: HuCTB006 10 mg/kg i.v. QW × 5w
# Text: as §1, §2, §3
# [12] = tested on: H2122; experiment: Human lung cancer H2122 subcutaneous model (Day 38 after treatment); settings: for Tumor regression: treatment groups
# Experimental: Tumor cells (i.e., MIA-PaCa-2, WiDr, H2122, colo205) were inoculated in nude mice's flank at 5×10^6 cells per mouse. The mice were grouped when the average volume of tumors reached about 100˜200 mm^3. “QW”=weekly dose. “Q3d”=dosed every third day. “BiW”=biweekly.
# The bodyweight and major/minor axis of the mice were measured twice a week, and the tumor volumes were calculated using the formula: Tumor volume=1/2×major axis×minor axis. […] “T” represents average tumor volume of the experimental group (cm^3), and “C” represents average tumor volume of the control group (cm^3). The animals were monitored at all times. The bodyweight and major/minor axis or mice were measured twice a week. When the experiments were concluded, mice were sacrificed and tumors were extracted and weighted.
# [13] = HuCTB006 0.2 mg/kg i.v. QW × 6W
# [14] = HuCTB006 0.2 mg/kg i.v. QW × 6W, 0.2 mg/kg
# [15] = HuCTB006 0.2 mg/kg i.v. QW × 6W, listed as HUCTB006, 0.2 mg/kg
# [16] = HuCTB006 0.6 mg/kg i.v. QW × 6W
# [17] = HuCTB006 0.6 mg/kg i.v. QW × 6W, 0.6 mg/kg
# [18] = HuCTB006 0.6 mg/kg i.v. QW × 6W, listed as HUCTB006, 0.6 mg/kg
# [19] = HuCTB006 1.8 mg/kg i.v. QW × 6W
# [20] = HuCTB006 1.8 mg/kg i.v. QW × 6W, 1.8 mg/kg
# [21] = HuCTB006 1.8 mg/kg i.v. QW × 6W, listed as HUCTB006, 1.8 mg/kg
# [22] = HuCTB006 5.4 mg/kg i.v. QW × 6W
# [23] = HuCTB006 5.4 mg/kg i.v. QW × 6W, 5.4 mg/kg
# [24] = HuCTB006 5.4 mg/kg i.v. QW × 6W, listed as HUCTB006, 5.4 mg/kg
# [25] = repeated experiment, HuCTB006 0.2 mg/kg
# [26] = repeated experiment, HuCTB006 0.6 mg/kg
# [27] = repeated experiment, HuCTB006 1.8 mg/kg
# [28] = repeated experiment, HuCTB006 5.4 mg/kg
substance,measurement,setting,value
"HuCTB006: Monospecific humanized chimeric monoclonal antibody directed to TRAIL-R2 receptor; heavy chain SEQ ID NO: 14, light chain SEQ ID NO: 12",cytotoxicity on human normal tissue cells,[1],no cytotoxicity
same,In vitro cytotoxic sensitivity of CTB006,[2],Non-responder
same,In vitro cytotoxic sensitivity of CTB006,[3],Non-responder
same,In vitro cytotoxic sensitivity of CTB006,[4],Non-responder
same,In vitro cytotoxic sensitivity of CTB006,[5],Non-responder
same,In vitro cytotoxic sensitivity of CTB006,[6],Partial-responder
same,In vitro cytotoxic sensitivity of CTB006,[7],Non-responder
same,In vitro cytotoxic sensitivity of CTB006,[8],Non-responder
same,T/C % (Calculated using tumor volumes),[9],102.39%
same,Time of tumor volume changed significantly,[9],3
same,Tumor Volume Mean ± SEM,[9],0.95 ± 0.06 cm^3
same,Tumor weight Mean ± SEM,[9],0.64 ± 0.06 g
same,TGI (Calculated using tumor volumes),[9]; 10 mg/kg,−21.15%
same,TGI (Calculated using tumor weight),[9]; 10 mg/kg,−9.22%
same,TGI (Calculated using tumor volumes),"[9]; listed as HUCTB006, 10 mg/kg",−21.15%
same,TGI (Calculated using tumor weight),"[9]; listed as HUCTB006, 10 mg/kg",−9.22%
same,T/C % (Calculated using tumor volumes),[10],89.71%
same,TGI (Calculated using tumor volumes),[10],9.42%
same,TGI (Calculated using tumor weight),[10],16.11%
same,Time of tumor volume changed significantly,[10],13
same,Tumor Volume Mean ± SEM,[10],0.96 ± 0.22 cm^3
same,Tumor weight Mean ± SEM,[10],0.67 ± 0.16 g
same,TGI (Calculated using tumor volumes),[10]; 10 mg/kg,9.42%
same,TGI (Calculated using tumor weight),[10]; 10 mg/kg,16.11%
same,T/C % (Calculated using tumor volumes),[11],79.86%
same,Time of tumor volume changed significantly,[11],16
same,Tumor Volume Mean ± SEM,[11],0.86 ± 0.19 cm^3
same,Tumor weight Mean ± SEM,[11],0.89 ± 0.23 g
same,TGI (Calculated using tumor volumes),[11]; 10 mg/kg,19.65%
same,TGI (Calculated using tumor weight),[11]; 10 mg/kg,−25.23%
same,T/C % (Calculated using tumor volumes),[12]; [13],92.13%
same,Time of tumor volume changed significantly,[12]; [13],8
same,Tumor Volume Mean ± SEM,[12]; [13],1.85 ± 0.15 cm^3
same,Tumor weight Mean ± SEM,[12]; [13],1.54 ± 0.09 g
same,TGI (Calculated using tumor volumes),[12]; [14],11.56%
same,TGI (Calculated using tumor weight),[12]; [14],6.45%
same,TGI (Calculated using tumor volumes),[12]; [15],11.56%
same,TGI (Calculated using tumor weight),[12]; [15],6.45%^5
same,T/C % (Calculated using tumor volumes),[12]; [16],50.75%
same,Tumor Volume Mean ± SEM,[12]; [16],1.02 ± 0.31 cm^3
same,Tumor weight Mean ± SEM,[12]; [16],0.89 ± 0.29 g
same,TGI (Calculated using tumor volumes),[12]; [17],51.06%
same,TGI (Calculated using tumor weight),[12]; [17],45.66%
same,TGI (Calculated using tumor volumes),[12]; [18],51.06%^3
same,TGI (Calculated using tumor weight),[12]; [18],45.66%^4
same,T/C % (Calculated using tumor volumes),[12]; [19],6.46%
same,Tumor Volume Mean ± SEM,[12]; [19],0.16 ± 0.16 cm^3
same,Tumor weight Mean ± SEM,[12]; [19],0.12 ± 0.12 g
same,TGI (Calculated using tumor volumes),[12]; [20],92.08%
same,TGI (Calculated using tumor weight),[12]; [20],92.48%
same,TGI (Calculated using tumor volumes),[12]; [21],92.08%**^2
same,TGI (Calculated using tumor weight),[12]; [21],92.48%*
same,T/C % (Calculated using tumor volumes),[12]; [22],5.54%
same,Tumor Volume Mean ± SEM,[12]; [22],0.18 ± 0.18 cm^3
same,Tumor weight Mean ± SEM,[12]; [22],0.19 ± 0.18 g
same,TGI (Calculated using tumor volumes),[12]; [23],91.23%
same,TGI (Calculated using tumor weight),[12]; [23],8.62%
same,TGI (Calculated using tumor volumes),[12]; [24],91.23%**
same,TGI (Calculated using tumor weight),[12]; [24],88.62%*^1
same,Bodyweights,"[12]; Taxol group, HuCTB006 0.2 mg/kg group","decreased, but were maintained at an acceptable level"
same,Tumor regression,[12]; first experiment,some animals of HuCTB006 treatment groups showed tumor regression
same,Tumor regression,[12]; repeated experiment,some animals of CTB006 treatment groups showed tumor regression
same,TGI (Calculated using tumor volume),[12]; [25],35.26%
same,TGI (Calculated using tumor weight),[12]; [25],32.46%
same,TGI (Calculated using tumor volume),[12]; [26],67.66%
same,TGI (Calculated using tumor weight),[12]; [26],65.94%
same,TGI (Calculated using tumor volume),[12]; [27],60.12%
same,TGI (Calculated using tumor weight),[12]; [27],64.21%
same,TGI (Calculated using tumor volume),[12]; [28],91.69%
same,TGI (Calculated using tumor weight),[12]; [28],92.25%
